These results are taken from US20070128217A1 (priority 2003, published 2007).

The test system of assay [1] is control sera (pooled serum of ten healthy LUMC hospital workers; commercial negative donor pooled serum from the Dutch bloodbank). The format is binding, human. Also on record: Binding of Control serum LUMC to linear peptides / Binding of Control serum Blood-bank to linear peptides / Binding of Control serum LUMC to looped peptides / Binding of Control Serum Blood-Bank to Looped peptides / Binding of Control serum LUMC to linear peptides of the protein M of SARS-CoV Urbani / Binding of Control serum Blood-bank to linear peptides of the protein M of SARS-CoV Urbani / Binding of Control serum LUMC to looped peptides of the protein M of SARS-CoV Urbani / Binding of Control Serum Blood-Bank to Looped peptides of the protein M of SARS-CoV Urbani: unit not given here.

Assay [2] concerns rabbit serum obtained by immunizing a rabbit with the SARS-CoV strain Frankfurt 1. The format is binding. Also on record: Binding of a rabbit serum to linear peptides / Binding of a rabbit serum to looped peptides / Rabbit serum linear peptides / Rabbit serum looped peptides / Binding of a rabbit serum to linear peptides of protein N of SARS-CoV Urbani (Rabbit serum linear peptides) / Binding of a rabbit serum to looped/cyclic peptides of protein N of SARS-CoV Urbani (Rabbit serum looped peptides): unit not given here.

Assay [3] has as its system antibodies in sera from SARS patients (sera 1a, 1b, 2, 6, 37, 62, London, SARS-yellow, SARS-green). The class given is binding, human. Also on record: Binding of serum 6 to linear peptides of protein X1 of SARS-CoV Urbani / Binding of serum 37 to linear peptides of protein X1 of SARS-CoV Urbani / Binding of serum 6 to looped/cyclic peptide (PEPSCAN-ELISA) / Binding of serum 37 to looped/cyclic peptide (PEPSCAN-ELISA) / Binding of serum 37 to looped/cyclic peptides of protein X1 of SARS-CoV Urbani / Binding of serum 6 to linear peptides of protein X2 / Binding of serum 37 to linear peptides of protein X2 / Binding of serum 37 to looped/cyclic peptides of protein X2 of SARS-CoV Urbani / Binding of serum 6 to linear peptides of protein M of SARS-CoV Urbani / Binding of serum 37 to linear peptides of protein M of SARS-CoV Urbani / Binding of serum 6 to looped/cyclic peptides of protein M of SARS-CoV Urbani / Binding of serum 37 to looped/cyclic peptides of protein M of SARS-CoV Urbani / Binding of serum 6 to linear peptides of protein X3 of SARS-CoV Urbani / Binding of serum 37 to linear peptides of protein X3 of SARS-CoV Urbani / Binding of serum 37 to looped/cyclic peptides of protein X3 of SARS-CoV Urbani / Binding of serum 6 to linear peptides of protein X4 of SARS-CoV Urbani / Binding of serum 37 to linear peptides of protein X4 of SARS-CoV Urbani / Binding of serum 37 to looped/cyclic peptides of protein X4 of SARS-CoV Urbani / Binding of serum 6 to linear peptides of protein X5 of SARS-CoV Urbani / Binding of serum 37 to linear peptides of protein X5 of SARS-CoV Urbani / Binding of serum 37 to looped/cyclic peptides of protein X5 of SARS-CoV Urbani / Binding of serum 6 to linear peptides of protein N of SARS-CoV Urbani / Binding of serum 37 to linear peptides of protein N of SARS-CoV Urbani / Binding of serum 6 to linear peptide (PEPSCAN-ELISA) / Binding of serum 1a to looped/cyclic peptides of protein N of SARS-CoV Urbani / Binding of serum 1b to looped/cyclic peptides of protein N of SARS-CoV Urbani / Binding of serum 2 to looped/cyclic peptides of protein N of SARS-CoV Urbani / Binding of serum 6 to looped/cyclic peptides of protein N of SARS-CoV Urbani / Binding of serum 37 to looped/cyclic peptides of protein N of SARS-CoV Urbani / Binding of serum 62 to looped/cyclic peptides of protein N of SARS-CoV Urbani / Binding of serum London to looped/cyclic peptides of protein N of SARS-CoV Urbani / Binding of serum SARS-green to looped/cyclic peptides of protein N of SARS-CoV Urbani: unit not given here.

On to TALQELLIQQWIQFM, for which, in assay [1], the “Binding of Control Serum Blood-Bank to Looped peptides” value amounted to 0.7, the “Binding of Control serum Blood-bank to linear peptides” value amounted to 0.7, the “Binding of Control serum LUMC to linear peptides” value turned out to be 0.4 and the “Binding of Control serum LUMC to looped peptides” value worked out at 0.7. Also, in assay [2], the “Binding of a rabbit serum to linear peptides” value is recorded as 0.4 and the “Binding of a rabbit serum to looped peptides” value was 0.4. Further, in assay [3], the “Binding of serum 1a to linear peptides of protein X2” value was 0.8, the “Binding of serum 1a to looped/cyclic peptides of protein X2 of SARS-CoV Urbani” value came to 0.7, the “Binding of serum 1b to linear peptides of protein X2” value was 0.6 and the “Binding of serum 1b to looped/cyclic peptides of protein X2 of SARS-CoV Urbani” value was 0.5. For the same sequence, in assay [3], the “Binding of serum 2 to linear peptides of protein X2” value is 0.3, the “Binding of serum 2 to looped/cyclic peptides of protein X2 of SARS-CoV Urbani” value was 0.4, the “Binding of serum 6 to linear peptides of protein X2” value is recorded as 0.2 and the “Binding of serum 6 to looped/cyclic peptides of protein X2 of SARS-CoV Urbani” value is 0.3. For the same sequence, in assay [3], the “Binding of serum 37 to linear peptides of protein X2” value stood at 0.5, the “Binding of serum 37 to looped/cyclic peptides of protein X2 of SARS-CoV Urbani” value amounted to 0.5, the “Binding of serum 62 to linear peptides of protein X2” value was 0.5 and the “Binding of serum 62 to looped/cyclic peptides of protein X2 of SARS-CoV Urbani” value was 0.7. Also, in assay [3], the “Binding of serum London to linear peptides of protein X2” value was found to be 0.4, the “Binding of serum London to looped/cyclic peptides of protein X2 of SARS-CoV Urbani” value is reported as 0.2, the “Binding of serum SARS-green to linear peptides of protein X2” value is 0.5 and the “Binding of serum SARS-green to looped/cyclic peptides of protein X2 of SARS-CoV Urbani” value was 0.5. Also, in assay [3], the “Binding of serum SARS-yellow to linear peptides of protein X2” value was 0.4 and the “Binding of serum SARS-yellow to looped/cyclic peptides of protein X2 of SARS-CoV Urbani” value amounted to 0.5.

For TAWLCALGKVLPFHR, in assay [1], the “Binding of Control Serum Blood-Bank to Looped peptides” value was determined as 0.4, the “Binding of Control serum Blood-bank to linear peptides” value was determined as 0.7, the “Binding of Control serum LUMC to linear peptides” value amounted to 0.4 and the “Binding of Control serum LUMC to looped peptides” value is listed as 0.6. For the same sequence, in assay [2], the “Rabbit serum linear peptides” value is given as 0.7 and the “Rabbit serum looped peptides” value came out at 0.8. In assay [3], the “Binding of serum 1a to linear peptides of protein X5 of SARS-CoV Urbani” value stood at 0.7, the “Binding of serum 1a to looped/cyclic peptides of protein X5 of SARS-CoV Urbani” value is 0.4, the “Binding of serum 1b to linear peptides of protein X5 of SARS-CoV Urbani” value is 0.5 and the “Binding of serum 1b to looped/cyclic peptides of protein X5 of SARS-CoV Urbani” value is 0.3. In assay [3], the “Binding of serum 2 to linear peptides of protein X5 of SARS-CoV Urbani” value is listed as 0.6, the “Binding of serum 2 to looped/cyclic peptides of protein X5 of SARS-CoV Urbani” value turned out to be 0.6, the “Binding of serum 6 to linear peptides of protein X5 of SARS-CoV Urbani” value is reported as 0.5 and the “Binding of serum 6 to looped/cyclic peptides of protein X5 of SARS-CoV Urbani” value was 0.9. For the same sequence, in assay [3], the “Binding of serum 37 to linear peptides of protein X5 of SARS-CoV Urbani” value was 0.7, the “Binding of serum 37 to looped/cyclic peptides of protein X5 of SARS-CoV Urbani” value turned out to be 0.4, the “Binding of serum 62 to linear peptides of protein X5 of SARS-CoV Urbani” value stood at 0.7 and the “Binding of serum 62 to looped/cyclic peptides of protein X5 of SARS-CoV Urbani” value stood at 0.7. In assay [3], the “Binding of serum London to linear peptides of protein X5 of SARS-CoV Urbani” value worked out at 0.6, the “Binding of serum London to looped/cyclic peptides of protein X5 of SARS-CoV Urbani” value is given as 1.3, the “Binding of serum SARS-green to linear peptides of protein X5 of SARS-CoV Urbani” value came out at 0.7 and the “Binding of serum SARS-green to looped/cyclic peptides of protein X5 of SARS-CoV Urbani” value turned out to be 0.2. For the same sequence, in assay [3], the “Binding of serum SARS-yellow to linear peptides of protein X5 of SARS-CoV Urbani” value stood at 0.3 and the “Binding of serum SARS-yellow to looped/cyclic peptides of protein X5 of SARS-CoV Urbani” value came to 0.8.

For TCTPNVTINCQDPAG, in assay [1], the “Binding of Control Serum Blood-Bank to Looped peptides” value came out at 0.4, the “Binding of Control serum Blood-bank to linear peptides” value worked out at 0.7, the “Binding of Control serum LUMC to linear peptides” value is 0.5 and the “Binding of Control serum LUMC to looped peptides” value was 0.2. In addition, in assay [2], the “Rabbit serum linear peptides” value was determined as 0.5 and the “Rabbit serum looped peptides” value was found to be 0.0. In assay [3], the “Binding of serum 1a to linear peptides of protein X5 of SARS-CoV Urbani” value is on record as 0.8, the “Binding of serum 1a to looped/cyclic peptides of protein X5 of SARS-CoV Urbani” value was 0.2, the “Binding of serum 1b to linear peptides of protein X5 of SARS-CoV Urbani” value was found to be 0.6 and the “Binding of serum 1b to looped/cyclic peptides of protein X5 of SARS-CoV Urbani” value was found to be 0.0. Besides, in assay [3], the “Binding of serum 2 to linear peptides of protein X5 of SARS-CoV Urbani” value came to 0.6, the “Binding of serum 2 to looped/cyclic peptides of protein X5 of SARS-CoV Urbani” value is reported as 0.1, the “Binding of serum 6 to linear peptides of protein X5 of SARS-CoV Urbani” value worked out at 0.8 and the “Binding of serum 6 to looped/cyclic peptides of protein X5 of SARS-CoV Urbani” value was 0.1. In assay [3], the “Binding of serum 37 to linear peptides of protein X5 of SARS-CoV Urbani” value is listed as 0.7, the “Binding of serum 37 to looped/cyclic peptides of protein X5 of SARS-CoV Urbani” value came out at 0.1, the “Binding of serum 62 to linear peptides of protein X5 of SARS-CoV Urbani” value stood at 0.8 and the “Binding of serum 62 to looped/cyclic peptides of protein X5 of SARS-CoV Urbani” value came out at 0.1. In addition, in assay [3], the “Binding of serum London to linear peptides of protein X5 of SARS-CoV Urbani” value is on record as 0.8, the “Binding of serum London to looped/cyclic peptides of protein X5 of SARS-CoV Urbani” value came to 0.1, the “Binding of serum SARS-green to linear peptides of protein X5 of SARS-CoV Urbani” value worked out at 0.8 and the “Binding of serum SARS-green to looped/cyclic peptides of protein X5 of SARS-CoV Urbani” value worked out at 0.2. Further, in assay [3], the “Binding of serum SARS-yellow to linear peptides of protein X5 of SARS-CoV Urbani” value was 0.2 and the “Binding of serum SARS-yellow to looped/cyclic peptides of protein X5 of SARS-CoV Urbani” value is 0.0.

TCTSTHFAFACADGT: in assay [1], the “Binding of Control Serum Blood-Bank to Looped peptides” value came to 0.7, the “Binding of Control serum Blood-bank to linear peptides” value is listed as 0.8, the “Binding of Control serum LUMC to linear peptides” value is listed as 0.9 and the “Binding of Control serum LUMC to looped peptides” value was 0.8. Besides, in assay [2], the “Rabbit serum linear peptides” value was determined as 0.5 and the “Rabbit serum looped peptides” value is recorded as 0.7. Moreover, in assay [3], the “Binding of serum 1a to linear peptides of protein X4 of SARS-CoV Urbani” value amounted to 0.8, the “Binding of serum 1a to looped/cyclic peptides of protein X4 of SARS-CoV Urbani” value was determined as 0.8, the “Binding of serum 1b to linear peptides of protein X4 of SARS-CoV Urbani” value amounted to 0.7 and the “Binding of serum 1b to looped/cyclic peptides of protein X4 of SARS-CoV Urbani” value came to 0.6. Moreover, in assay [3], the “Binding of serum 2 to linear peptides of protein X4 of SARS-CoV Urbani” value is given as 0.5, the “Binding of serum 2 to looped/cyclic peptides of protein X4 of SARS-CoV Urbani” value is on record as 0.8, the “Binding of serum 6 to linear peptides of protein X4 of SARS-CoV Urbani” value is listed as 0.7 and the “Binding of serum 6 to looped/cyclic peptides of protein X4 of SARS-CoV Urbani” value turned out to be 0.6. Moreover, in assay [3], the “Binding of serum 37 to linear peptides of protein X4 of SARS-CoV Urbani” value is 0.7, the “Binding of serum 37 to looped/cyclic peptides of protein X4 of SARS-CoV Urbani” value came to 0.7, the “Binding of serum 62 to linear peptides of protein X4 of SARS-CoV Urbani” value was 0.9 and the “Binding of serum 62 to looped/cyclic peptides of protein X4 of SARS-CoV Urbani” value was 0.8. Further, in assay [3], the “Binding of serum London to linear peptides of protein X4 of SARS-CoV Urbani” value turned out to be 0.8, the “Binding of serum London to looped/cyclic peptides of protein X4 of SARS-CoV Urbani” value is given as 0.3, the “Binding of serum SARS-green to linear peptides of protein X4 of SARS-CoV Urbani” value is on record as 0.6 and the “Binding of serum SARS-green to looped/cyclic peptides of protein X4 of SARS-CoV Urbani” value stood at 0.5. Also, in assay [3], the “Binding of serum SARS-yellow to linear peptides of protein X4 of SARS-CoV Urbani” value is given as 0.6 and the “Binding of serum SARS-yellow to looped/cyclic peptides of protein X4 of SARS-CoV Urbani” value is listed as 0.8.
